Measured values reported in patent US12465585B2, “Compositions for the management of seizure induced neurotoxicity” (SAMI-SABINSA GROUP LIMITED, priority 2018, dated 2025).

Tests used:
Assay type in all cases: in vivo
caspase 3 = assay: Caspase 3 activity in brain cortex, kainic acid induced seizure rat model; conditions: KA seizure rat model, KA vs control, OBC 250 and 500 mg/kg
Procedure: (§1) Two-month-old male Sprague-Dawley rats were purchased from commercial vendor and housed at 25°±2° C., with the humidity maintained at 55%, wood chip bedding, on a 12:12 hour dark/light cycle, with free access to food and water. All animal procedures were carried out in accordance with NIH and Auburn University Animal Care and Use Committee guidelines. The rats were divided into four groups (1. Control, 2. Kainic acid (10 mg/kg), 3. LD (Low Dose)-composition containing OBC 250 mg/kg+Kainic acid, and 4. High Dose (HD)-composition containing OBC 500 mg/kg+Kainic acid). Composition containing OBC was mixed with powdered feed and administered orally for 2 weeks prior to kainic-acid administration. […] Neuroscience. 1982; 7(10):2525-36; Jinde et al., Lack of kainic acid-induced gamma oscillations predicts subsequent CA1 excitotoxic cell death. Eur J Neurosci. 2009; 30(6):1036-55; Medvedev et al., Kainic acid induces distinct types of epileptiform discharge with differential involvement of hippocampus and neocortex. Brain Res Bull. 2000; 52(2):89-98). Typically, Racine scores include the following stages:
(§2) For the complete management of epilepsy, it is imperative to reduce the incidence of seizures and also to effectively manage and correct the damage to the neurons which is induced by recurrent seizure activity. […]

caspase 1 = assay: Caspase 1 activity in brain cortex, kainic acid induced seizure rat model; conditions: KA seizure rat model, KA vs control, OBC 250 and 500 mg/kg
Procedure: as §1, §2

cortex of the brain = assay: Anti-oxidant parameters in brain cortex, kainic acid induced seizure rat model; conditions: KA seizure rat model, KA vs control
Procedure: as §1
For the complete management of epilepsy, it is imperative to reduce the incidence of seizures and also to effectively manage and correct the damage to the neurons which is induced by recurrent seizure activity. Drugs which reduced the incidence of seizures may not effectively manage and correct the clinical conditions resulting from seizures. Failure to correct and manage such effects results in neurodegeneration. The ability of a composition comprising oroxylin A, baicalein and chrysin (OBC) [250 mg/kg—low dose (LD) and 500 mg/kg—high dose (HD)] to management of neurotoxicity associated by epilepsy was tested in kainic acid induced seizure rat model. The biochemical parameters like ROS, hydrogen peroxide, protein carbonyl levels, nitrite levels, glutathione content, mitochondrial activity, and caspase activity were estimated in the cortex of the rat models.

[1] = OBC 250 and 500 mg/kg oral 2 weeks

C=C(C)[C@H]1CN[C@H](C(=O)O)[C@H]1CC(=O)O [Kainic acid]
Activity of caspase 3 (FIG. 10) (caspase 3): significantly increased
Activity of caspase 1 (FIG. 9) (caspase 1): significantly increased
Glutathione levels (FIG. 7) (cortex of the brain; OBC 250 and 500 mg/kg): decreased
Hydrogen peroxide levels (FIG. 4) (cortex of the brain; [1]): significantly increased
Lipid peroxidation (FIG. 5) (cortex of the brain; [1]): significantly increased
Nitrite content (FIG. 3) (cortex of the brain; [1]): significantly increased
Protein carbonyl content (FIG. 6) (cortex of the brain; [1]): significantly increased
ROS generation (FIG. 2) (cortex of the brain; [1]): significantly increased
